Results on 13 molecules are retold here after patent publication US11739073B2, “Aryl-n-aryl derivatives for treating a RNA virus infection” (ABIVAX, priority 2018, dated 2023).

Assay [1] relates to Chikungunya Virus (CHIKV). Nature of the assay: Inhibition of Chikungunya virus (CHIKV) production in infected HEK293T cell line (GFP-modified virus, fluorescence). It is filed as cell-based, CHIKV strain of La Réunion outbreak (LR2006-OPY1). To be noted: HEK-293T, infected HEK293T cells; for inhibition at 1 µM: compounds at 1 μM, MOI 0.1, 22 h, values above 100 lowered to 100, read-out: % CHIKV Inhibition Mean (n = 2); for IC50: read-out: IC50 (CHIKV, second round of experiments). The procedure: The ability of the compounds to inhibit viral replication was assessed with an experiment in which infected cells were treated by compounds of formula (I) at 1 μM. As a positive control for inhibition of Chikungunya, Ribavirin was used. Toxicity of the compounds was assessed in parallel.
Human embryonic kidney cells 293T (HEK293T, CRL-11268) were maintained in Dulbecco's modified Eagle's Medium (DMEM, 31966-021, Thermo Fisher Scientific) supplemented with 10% of fetal bovine serum (FBS), penicillin and streptomycin. After removal of the medium, cells were washed with Ca^2+ and Mg^2+-free salt solution to remove all traces of serum. After aspiration of wash solution, cells were dissociated with 0.25% Trypsin-EDTA solution and incubated 30 s at least in 37° C. incubator. Concentration of cell suspension was determined by an automatic cell counter (EVE, NanoEntek) and, if needed, adjusted to 0.33×10^6 cells/mL with DMEM medium supplemented with 10% FBS.
100 μL of the cell suspension were dispatched in a ViewPlate-96 Black (6005182, PerkinElmer) and in a transparent 96-well cell culture plate (655180, Greiner bio-one). After an incubation for 24 h at 37° C. under 5% of CO2, compounds were added at the proper concentration.
An intermediate dilution was prepared with DMSO (D8418, Sigma) at 2 mM in a 96-well V-bottom microplate from the stock solution:
Mix 1 μL of the 50 mM stock library in 25 μL of DMSO.
Mix 2 μL of the 25 mM stock library in 25 μL of DMSO.
An intermediate dilution was prepared with DMSO (D8418, Sigma) at 25 mM in a 96-well V-bottom microplate from the stock solution:
Mix 2 μL of the 50 mM stock library in 2 μL of DMSO.
Perform serial dilution in 2 μL of DMSO 13 times to reach 0.0015 mM. Proceed as follows in table III:
For both screen and determination of IC50, 1 μL of each solution was added in a 1 mL Masterblock 96 wells (Greiner bio-one, 780261) containing 1 mL of DMEM medium. As a positive control, 5 μL of a 80 mM Ribavirin solution (R9644, Sigma) is added to 1 mL of DMEM. On the other hand, DMSO is used as a negative control.
[…]. Vector Borne Zoonotic Dis. 2006; 6(4)). This modified virus was used to infect cells at MOI 0.1. […]. Medium was removed after 22 h at 37° C. under 5% of CO2 and cells were washed as described above. 60 μL of RIPA buffer (50 mM Tris-HCl pH8, 100 mM NaCl, 1 mM MgCl2, 1% Triton X-100) was added to cells and incubated for at least 20 min before reading fluorescence signal. Pierce 660 nm Protein Assay Reagent (22660, Thermo scientific) was used to normalize fluorescence signal by protein quantity.
CellTiter 96® AQueous One Solution Cell Proliferation Assay (MTS) (G3581, Promega) was used to check the toxicity of the compounds. We added 20 μL of MTS solution and read absorbance at 492 nm one hour later.
Results • A first round of experiments has been performed wherein the results are expressed as inhibition percentage, which is calculated as follows, through the following steps:
1. Fluorescence intensity (FI)/Absorbance 660 nm (A660)=A
This ratio allows considering the infection (GFP virus) to the protein amount.
2. A′=A—background noise of non-infected plate,
3. B=Fluorescence intensity (FI)/Absorbance 660 nm (A660) of infected but non treated plates,
4. C=A′/B, which is then converted as the percentage of infection after treatment, compared to non-treated sample, and subsequently as the […]. For instance, a value of 100 in Table IV here below means that, after treatment, the signal attributed to GFP fluorescence is abolished, which is correlated to the absence of infection.
This value corresponds to the inhibition's percentage.
The following Table IV encompasses said C′ value for some compounds, as calculated above with a mean of 2 experiments, and corresponding standard deviation.
Some values were originally above 100. In these cases, the value has been lowered to 100. This means that some molecules also have an impact on the viability of the cells. […]

The next assay has as its system RSV. The experiment in a line: RSV inhibition in HEp-2 cells using Viral ToxGlo assay (cytopathic effect). It is filed as cell-based, RSV A2. To be noted: human respiratory syncytial virus, HEp-2, 72 h. The procedure: Protocol for Screening Antiviral Compounds for RSV Inhibition and Cytotoxicity Using Viral ToxGlo Assay
HEp-2 cells were maintained in Eagle's minimum essential medium (EMEM) with Earle's BSS adjusted to contain 2 mM L-glutamine, 10% fetal bovine serum, 100 U/ml penicillin and 100 μg/ml streptomycin. For the purposes of the screening assay they were grown to 90% confluency, trypsinized and recovered. The trypsin was neutralised with cell culture media and cells were centrifuged at 150×g for 5 minutes before discarding the supernatant and resuspending cell pellet in assay media (EMEM with Earle's BSS adjusted to contain 2 mM L-glutamine, 2% fetal bovine serum and 100 U/ml penicillin and 100 μg/ml streptomycin). The cells were seeded into white clear-bottomed cell culture plates at a density of 1.5×10^4 cells/well in 50 μl and 4×10^3 cells/well in 25 μl for 96 well plates and 384 well plates respectively. For the media/background control column assay media only was added. Cell plates were placed in a humid chamber and incubated overnight at 37° C./5% CO2. After overnight incubation cells were checked for confluency and healthy appearance.
Test articles were made up at 10× test concentration in a maximum DMSO concentration of 10% (final assay concentration maximal 1% DMSO) and added to the cell plates in volumes of 10 μl for 96 well plates and 5 μl for 384 well plates. For cell control and virus control wells the test article solvent only was added. Virus or assay media for cytotoxicity test wells and media/cell control wells was added immediately after test articles at an MOI of 0.5, 40 or 20 μl for 96 and 384 well plates respectively. Virus suspension was prepared by thawing RSV A2 frozen stocks and diluting to the required concentration of plaque forming units in assay media on ice.
Cell plates were further incubated inside a humid chamber for 72 h p.i at 37° C./5% CO2. After the incubation period cells were observed under the microscope to check for characteristic cytopathic effect in virus control wells and healthy cells in the cell control wells. After plates were adjusted to room temperature 20/40 μl Viral ToxGlo (Promega) was added to each well of the 384/96 well cell plates. Plates were incubated at room temperature, protected from light on a plate rocker for 20 minutes before measuring the luminescence on a spectrophotometer (Biotek Synergy HTX).
RSV inhibition was calculated as percentage of cytopathic effect inhibition relative to the virus control and cytotoxicity as percentage of cell survival relative to cell control wells. This allowed EC50 values to be calculated for each test article where a virus inhibition or cytotoxic dose response was identified.

The test system of another assay is DENV-2. Nature of the assay: DENV-2 inhibition in A549 cells using Viral ToxGlo assay (cytopathic effect). It is filed as cell-based, DENV-2 strain 16681. The note with it: Dengue virus, DENV2, A549, 120 h, read-out: % DENV-2 Inhibition Mean (n = 3). The procedure:
Protocol for Screening Antiviral Compounds for DENV-2 Inhibition and Cytotoxicity Using Viral ToxGlo Assay
A549 cells were maintained in Dulbecco's Modified Eagle Medium (DMEM) supplemented with 10% fetal bovine serum, 100 U/ml penicillin and 100 μg/ml streptomycin. For the purposes of the screening assay they were grown to 90% confluency, trypsinized and recovered. The trypsin was neutralised with cell culture media and cells were centrifuged at 150×g for 5 minutes before discarding the supernatant and resuspending cell pellet in assay media (DMEM supplemented with 2% fetal bovine serum and 100 U/ml penicillin and 100 μg/ml streptomycin). The cells were seeded into 96-well white clear-bottomed cell culture plates at a density of 1.0×10^4 cells/well in 50 μl. For the media/background control column assay media only was added. Cell plates were placed in a humid chamber and incubated overnight at 37° C./5% CO2. After overnight incubation cells were checked for confluency and healthy appearance.
Test compounds were prepared at a final concentration of 10 μM in a maximum DMSO concentration of 1% (final assay concentration maximal 0.1% DMSO) and added to the cell plates in volumes of 10 μl. For cell control and virus control wells the test article solvent only was added. As a positive inhibition control, 7-Deaza-2′-C-methyladenosine was added at 100 μM in 3 wells. Virus (DENV-2 strain 16681) or assay media for cytotoxicity test wells and media/cell control wells was added immediately after test articles at an MOI of 0.5, 40 for 96 well plates respectively. Virus suspension was prepared by thawing DENV-2 frozen stocks and diluting to the required concentration of plaque forming units in assay media.
Cell plates were further incubated inside a humid chamber for 5 days p.i at 37° C./5% CO2. After the incubation period cells were observed under the microscope to check for characteristic cytopathic effect in virus control wells and healthy cells in the cell control wells. After plates were adjusted to room temperature 20 μl Viral ToxGlo (Promega) was added to each well of the 96-well cell plates. Plates were incubated at room temperature for 5 minutes before measuring the luminescence on a spectrophotometer (Envision, PerkinElmer).
DENV-2 inhibition was calculated as percentage of cytopathic effect inhibition relative to the virus control and cytotoxicity as percentage of cell survival relative to cell control wells.
(Cytopathic effects are the visible damage that an infection or toxin causes in cultured cells.)

Take `CC(C)CCNC(=O)c1cccc(Nc2ccc(/C=C/c3ccccn3)cc2)c1` [Compound 1, (E)-N-isopentyl-3-((4-(2-(pyridin-2-yl)vinyl)phenyl)amino)benzamide]: the inhibition (in general, the drop in the measured response relative to a control, in per cent) at 1 µM in assay [1] was found to be 98%.

For the molecule `CC(C)CCNC(=O)c1ccc(Nc2ccc(/C=C/c3ccccn3)cc2)cc1` [Compound 2, (E)-N-isopentyl-4-((4-(2-(pyridin-2-yl)vinyl)phenyl)amino)benzamide], the inhibition at 1 µM in assay [1] is 74%.

On to `O=C(NCCC1CCCCC1)c1cccc(Nc2ccc(/C=C/c3ccccn3)cc2)c1` [Compound 4, (E)-N-(2-cyclohexylethyl)-3-((4-(2-(pyridin-2-yl)vinyl)phenyl)amino)benzamide], for which the inhibition at 1 µM in assay [1] came to 99%.

On to `O=C(NCCC1CCCC1)c1cccc(Nc2ccc(/C=C/c3ccccn3)cc2)c1` [Compound 6, (E)-N-(2-cyclopentylethyl)-3-((4-(2-(pyridin-2-yl)vinyl)phenyl)amino)benzamide], for which, in assay [1], the inhibition at 1 µM was 98% and the IC50 (usually the concentration that gives 50% inhibition) lay in the range of 200 to 500 nM.

Take `O=C(NCCC1CCC1)c1cccc(Nc2ccc(/C=C/c3ccccn3)cc2)c1` [Compound 9, (E)-N-(2-cyclobutylethyl)-3-((4-(2-(pyridin-2-yl)vinyl)phenyl)amino)benzamide]: the inhibition at 1 µM in assay [1] was determined as 98%.

`Cc1cc(/C=C/c2ccccn2)ccc1Nc1cccc(C(=O)NCCC2CCCC2)c1` [Compound 12, (E)-N-(2-cyclopentylethyl)-3-((2-methyl-4-(2-(pyridin-2-yl)vinyl)phenyl)amino)benzamide]: in the assay with RSV, the EC50 (usually the midpoint of the concentration-response curve) fell in the range of 370 to 2500 nM. Further, the IC50 in assay [1] was in the range of 1 to 200 nM. In the assay with DENV-2, the inhibition at 10 µM came out at 96%.

As for `Cc1cc(/C=C/c2ccccn2)ccc1Nc1cccc(C(=O)NCCC(C)C)c1` [Compound 13, (E)-N-isopentyl-3-((2-methyl-4-(2-(pyridin-2-yl)vinyl)phenyl)amino)benzamide], in the assay on RSV, the EC50 fell in the range of 370 to 2500 nM. In addition, the IC50 in assay [1] fell in the range of 1 to 200 nM. Moreover, the inhibition at 10 µM in the assay on DENV-2 was determined as 86%.

With `CC(C)CCNC(=O)c1cccc(Nc2ccc(C(=O)Nc3ccccn3)cc2)c1` [Compound 14, N-isopentyl-3-((4-(pyridin-2-ylcarbamoyl)phenyl)amino)benzamide], in assay [1], the inhibition at 1 µM was 93% and the IC50 fell in the range of 200 to 500 nM.

Consider `O=C(NCCC1CCCC1)c1cccc(Nc2ccc(C(=O)Nc3ccccn3)cc2)c1` [Compound 15, N-(2-cyclopentylethyl)-3-((4-(pyridin-2-ylcarbamoyl)phenyl)amino)benzamide], for which, in assay [1], the inhibition at 1 µM came out at 98% and the IC50 lay in the range of 200 to 500 nM. Further, the inhibition at 10 µM in the assay on DENV-2 amounted to 107%.

With `O=C(NCCC1CCCCC1)c1cccc(Nc2ccc(C(=O)Nc3ccccn3)cc2)c1` [Compound 16, N-(2-cyclohexylethyl)-3-((4-(pyridin-2-ylcarbamoyl)phenyl)amino)benzamide], the concentration for a half-maximal effect (EC50) in the assay on RSV was 1170 nM. For the same molecule, in assay [1], the inhibition at 1 µM was 100% and the IC50 lay within 200 to 500 nM.

Regarding `CC(C)CCNC(=O)c1cccc(Nc2ccc(NC(=O)c3ccccn3)cc2)c1` [Compound 32, N-(4-((3-(isopentylcarbamoyl)phenyl)amino)phenyl)picolinamide], in assay [1], the inhibition at 1 µM amounted to 99% and the IC50 lay in the range of 200 to 500 nM.

`O=C(NCCC1CCCC1)c1cccc(Nc2ccc(NC(=O)c3ccccn3)cc2)c1` [Compound 35, N-(4-((3-((2-cyclopentylethyl)carbamoyl)phenyl)amino)phenyl)picolinamide]: in assay [1], the inhibition at 1 µM worked out at 100% and the IC50 lay in the range of 200 to 500 nM. For the same molecule, in the assay with DENV-2, the inhibition at 10 µM worked out at 66%.

On to `O=C(Nc1ccccc1)c1ccc(Nc2cccc(OCCCC3CCCCC3)c2)c(C2CC2)c1` [Compound 115, 4-{[3-(3-cyclohexylpropoxy)phenyl]amino}-3-cyclopropyl-N-phenylbenzamide], for which the EC50 with RSV was 229 nM.
